Measurements published in PubChem BioAssay AID1963440 (Molecular Pharmacology Branch, DTP, NCI, 2024).
pIC50: −log10 of the molar value. Several values for one entry are separate records, joined by “and”; a condition that tells them apart may be missing. Equal entries are not always repeated.

Tested on: NCI-H1417 complex spheroids, growth % test/control
Experiment: Anticancer human tumor NCI-H1417 cell line growth inhibition [Asc];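 note: spheroids exposed to compounds for 7 days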;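 for viability, T/C: 100% = DMSO vehicle control wells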
Settings: for viability, T/C: stronger effect = lower value; active = viability on the fitted dose curve at most 10% of control; inactive = the rest
Experimental: Multicellular complex tumor spheroid response to apoptosis pathway targeting inhibitors Alrizomadlin, Pelcitoclax, and Dasminapant in combination with a variety of drugs and investigational agents in selected tumor cell lines
The MDM2 inhibitor alrizomadlin, the Bcl-2/Bcl-xL inhibitor pelcitoclax, and the IAPs inhibitor dasminapant were evaluated both individually and in combination with standard of care and investigational anticancer small molecules within a complex spheroid model of solid tumors. . Complex spheroids include a stromal component modeled by human endothelial cells (HUVEC) and fibroblasts modeled by human mesenchymal stem cells (MSCs). The concentration ranges selected for each drug and investigational agent were based upon clinically achievable concentrations if the clinical Cmax of the agent was known.
Compounds. The drugs and investigational agents: alrizomadlin (APG-115; NSC831270), pelcitoclax (APG-1252; NSC835773), dasminapant (APG-1387;NSC834197), TAK-243 (NSC785004), copanlisib (NSC809693), olaparib (NSC753686), talazoparib (NSC767125), cobimetinib (NSC 768068), eltanexor (KPT-8602, NSC 794443), abemaciclib (NSC 768073), sotorasib (NSC818433), adagrasib (NSC 831453), MRTX-1133 (NSC 836407), Iadademestat (ORY1001, NSC 806812), and RMC-4630 (NSC839698), were obtained from the NCI Developmental Therapeutics Program Chemical Repository. The FDA-approved anticancer drug set is available from the Developmental Therapeutics Program at https://dtp.cancer.gov/organization/dscb/obtaining/available plates.htm. […] The stock solutions were prepared in dimethyl sulfoxide (DMSO, Sigma-Aldrich, St. Louis, MO, cat. D2650) at 800-fold the tested concentration and stored at -70 degrees C prior to their use. All drugs and investigational agents were tested over a range starting from a high concentration at or near the clinical Cmax and decreasing in half-log increments. If the clinical Cmax for an agent had not been determined, the highest concentration tested was 10 microM.
The patient-derived cancer (PDC) cell lines include five colon adenocarcinomas: 186277-243-T-J2-PDC, 616215-338-R-J1-PDC, 439559-082-T-J2-PDC, 463943-066-T-J2-PDC, and 519858-162-T-J1-PDC; three pancreatic carcinomas: 323965-272-R-J2-PDC, 521955-158-R6-J3-PDC, and 521955-158-R2-J5-PDC; two uterine sarcomas: 327498-152-R-J2-PDC and 993429-296-R-J1-PDC; two rhabdomyosarcomas: 755483-174-R-J1-PDC and 772245-204-R-J1-PDC; two soft tissue sarcomas: 126254-015-R-J1-PDC and 494315-158-R-J1-PDC; two malignant fibrous histiocytomas: 317291-083-R-J1-PDC and 596521-263-R-J1-PDC; two breast carcinomas: 171881-019-R-J1-PDC and 885512-296-R-J2-PDC; and one ovarian carcinoma: 6556581-035-R-J-PDC were obtained from the NCI PDMR, (https://pdmr.cancer.gov). The established cell lines HSSY-2 synovial sarcoma (RRID:CVCL 8719), SYO-1 synovial sarcoma (RRID:CVCL_7146), MPNST malignant peripheral neural sheath tumor were obtained from the Sloan Kettering Institute. The following established cell lines were purchased from the American Type Culture Collection (ATCC, Manassas, VA), Sor the received from the NCI repository:, PANC-1 pancreatic carcinoma (CRL-1469, RRID:CVCL_0480), OVCAR-5 ovarian carcinoma (RRID:CVCL_1628), OVCAR-8 ovarian carcinoma (RRID:CVCL_1629), , MCF-7 breast carcinoma (CRL-12584, RRID:CVCL_0031), MDA-MB-231 breast carcinoma (CRL-12532, RRID:CVCL_0062), NCI-H1876 small cell lung carcinoma (CRL-5902, RRID:CVCL_1503), NCI-H510A small cell lung carcinoma (HTB-184, RRID:CVCL_1565), NCI-H1417 (CRL-5869, RRID:CVCL_1469), and NCI-H196 small cell lung carcinoma (CRL-5823, RRID:CVCL_1509). Dr. Peter Houghton (Greehey Children's Cancer Research Institute, University of Texas Health Science Center, San Antonio, TX) provided Rh-18 rhabdomyosarcoma (RRID:CVCL_1659). Pooled donor human umbilical vein endothelial cells (HUVEC, Lonza, cat. CC-2519) and human mesenchymal stem cells (hMSC, Lonza, cat. PT-2501) were purchased from Lonza (Walkersville, MD).
Cell Culture. […]

Cn1ncnc1[C@H]1c2n[nH]c(=O)c3cc(F)cc(c23)N[C@@H]1c1ccc(F)cc1 + CCN1C(C(=O)NC23CCC(C(=O)O)(CC2)CC3)C(c2cccc(Cl)c2F)C2(C(=O)Nc3cc(Cl)ccc32)C12CCCCC2
8.00: pIC50 (curve of first compound, second compound 3 µM)
7.89: pIC50 (curve of first compound, second compound 0.949 µM)
inactive: viability, T/C (second compound 0.03 µM, first compound 0.000316 µM) 99.3% | viability, T/C (second compound 0.03 µM, first compound 0.001 µM) 94% | viability, T/C (second compound 0.03 µM, first compound 0.00316 µM) 87.5% | viability, T/C (second compound 0.03 µM, first compound 0.01 µM) 66% | viability, T/C (second compound 0.03 µM, first compound 0.0316 µM) 52.6% | viability, T/C (second compound 0.03 µM, first compound 0.1 µM) 42% | viability, T/C (second compound 0.0949 µM, first compound 0.000316 µM) 91.8% | viability, T/C (second compound 0.0949 µM, first compound 0.001 µM) 91.7% | viability, T/C (second compound 0.0949 µM, first compound 0.00316 µM) 90% | viability, T/C (second compound 0.0949 µM, first compound 0.01 µM) 52.3% | viability, T/C (second compound 0.0949 µM, first compound 0.0316 µM) 49.9% | viability, T/C (second compound 0.0949 µM, first compound 0.1 µM) 38.1% | viability, T/C (second compound 0.3 µM, first compound 0.000316 µM) 94.5% | viability, T/C (second compound 0.3 µM, first compound 0.001 µM) 90.4% | viability, T/C (second compound 0.3 µM, first compound 0.00316 µM) 79.2% | viability, T/C (second compound 0.3 µM, first compound 0.01 µM) 48.5% | viability, T/C (second compound 0.3 µM, first compound 0.0316 µM) 43.6% | viability, T/C (second compound 0.3 µM, first compound 0.1 µM) 39.9% | viability, T/C (second compound 0.949 µM, first compound 0.000316 µM) 83.6% | viability, T/C (second compound 0.949 µM, first compound 0.001 µM) 87.8% | viability, T/C (second compound 0.949 µM, first compound 0.00316 µM) 75.8% | viability, T/C (second compound 0.949 µM, first compound 0.01 µM) 55.1% | viability, T/C (second compound 0.949 µM, first compound 0.0316 µM) 34.4% | viability, T/C (second compound 0.949 µM, first compound 0.1 µM) 34.8% | viability, T/C (second compound 3 µM, first compound 0.000316 µM) 80% | viability, T/C (second compound 3 µM, first compound 0.001 µM) 80.8% | viability, T/C (second compound 3 µM, first compound 0.00316 µM) 76.3% | viability, T/C (second compound 3 µM, first compound 0.01 µM) 49.6% | viability, T/C (second compound 3 µM, first compound 0.0316 µM) 39.6% | viability, T/C (second compound 3 µM, first compound 0.1 µM) 34.5%
7.44: pIC50 (curve of first compound, second compound 0.03 µM)
8.02: pIC50 (curve of first compound, second compound 0.3 µM)
7.86: pIC50 (curve of first compound, second compound 0.0949 µM)

C=C(F)C(=O)N1CCN(c2nc(OCC3CCCN3C)nc3c2CCN(c2cccc4cccc(Cl)c24)C3)CC1CC#N (configuration not stated)
inactive: viability, T/C (compound 0.0316 µM) 98.9% and 103% and 94.2% | viability, T/C (compound 0.1 µM) 106% and 101% and 88% | viability, T/C (compound 0.316 µM) 96.4% and 99.8% and 99.7% | viability, T/C (compound 1 µM) 90.7% and 84.8% and 90.3% | viability, T/C (compound 3.16 µM) 59.8% and 57.5% and 74.3%
5.42 and 5.44 and 5.34: pIC50 (curve of compound)
active: viability, T/C (compound 10 µM) 0.26% and 0.27% and 0.31%

O=C(c1cc(Cc2n[nH]c(=O)c3ccccc23)ccc1F)N1CCN(C(=O)C2CC2)CC1 + Cc1c(S(C)(=O)=O)c(-c2cc(F)cc(N3CCN(c4ccc(NS(=O)(=O)c5ccc(NC(CCN6CCC(C(=O)OCCCP(=O)(O)O)CC6)CSc6ccccc6)c(S(=O)(=O)C(F)(F)F)c5)cc4)CC3)c2)c(-c2ccc(Cl)cc2)n1C(C)C
> 7.50: pIC50 (curve of first compound, second compound 0.316 µM) | pIC50 (curve of first compound, second compound 1 µM) | pIC50 (curve of first compound, second compound 3.16 µM) | pIC50 (curve of first compound, second compound 10 µM)
5.95: pIC50 (curve of first compound, second compound 0.1 µM)
inactive: viability, T/C (second compound 0.1 µM, first compound 0.0316 µM) 78.7% | viability, T/C (second compound 0.1 µM, first compound 0.1 µM) 78.5% | viability, T/C (second compound 0.1 µM, first compound 0.316 µM) 69.3% | viability, T/C (second compound 0.1 µM, first compound 1 µM) 52.8% | viability, T/C (second compound 0.1 µM, first compound 3.16 µM) 25.5% | viability, T/C (second compound 0.316 µM, first compound 0.0316 µM) 44.5% | viability, T/C (second compound 0.316 µM, first compound 0.1 µM) 37% | viability, T/C (second compound 0.316 µM, first compound 0.316 µM) 35.1% | viability, T/C (second compound 0.316 µM, first compound 1 µM) 23.2% | viability, T/C (second compound 0.316 µM, first compound 3.16 µM) 7.41% | viability, T/C (second compound 1 µM, first compound 0.0316 µM) 10.6% | viability, T/C (second compound 1 µM, first compound 0.1 µM) 14.2%
active: viability, T/C (second compound 0.1 µM, first compound 10 µM) 5.06% | viability, T/C (second compound 0.316 µM, first compound 10 µM) 3.61% | viability, T/C (second compound 1 µM, first compound 0.316 µM) 8.49% | viability, T/C (second compound 1 µM, first compound 1 µM) 5.49% | viability, T/C (second compound 1 µM, first compound 3.16 µM) 2.71% | viability, T/C (second compound 1 µM, first compound 10 µM) 3.64% | viability, T/C (second compound 3.16 µM, first compound 0.0316 µM) 2.9% | viability, T/C (second compound 3.16 µM, first compound 0.1 µM) 2.62% | viability, T/C (second compound 3.16 µM, first compound 0.316 µM) 2.54% | viability, T/C (second compound 3.16 µM, first compound 1 µM) 2.33% | viability, T/C (second compound 3.16 µM, first compound 3.16 µM) 2.43% | viability, T/C (second compound 3.16 µM, first compound 10 µM) 2.96% | viability, T/C (second compound 10 µM, first compound 0.0316 µM) 2.71% | viability, T/C (second compound 10 µM, first compound 0.1 µM) 2.63% | viability, T/C (second compound 10 µM, first compound 0.316 µM) 2.54% | viability, T/C (second compound 10 µM, first compound 1 µM) 1.96% | viability, T/C (second compound 10 µM, first compound 3.16 µM) 2.66% | viability, T/C (second compound 10 µM, first compound 10 µM) 3.21%
